Laboratory results from ChEMBL document CHEMBL5465560, “Selectivity Literature for EUbOPEN Chemogenomic Library” (2024).

How the values were obtained:
[1] = biological target: Tyrosine-protein kinase receptor UFO (Homo sapiens) (UniProt P30530); assay: Selectivity interaction (Kinase panel (Invitrogen)) EUB0000639a AXL; details: at 200 nM
[2] = biological target: T1, Sphingosine kinase 2 (Homo sapiens) (UniProt Q9NRA0); assay: Selectivity interaction (Adapta Assay) EUB0001632a SPHK2; details: at 10 µM
T1 sequence (whole entry): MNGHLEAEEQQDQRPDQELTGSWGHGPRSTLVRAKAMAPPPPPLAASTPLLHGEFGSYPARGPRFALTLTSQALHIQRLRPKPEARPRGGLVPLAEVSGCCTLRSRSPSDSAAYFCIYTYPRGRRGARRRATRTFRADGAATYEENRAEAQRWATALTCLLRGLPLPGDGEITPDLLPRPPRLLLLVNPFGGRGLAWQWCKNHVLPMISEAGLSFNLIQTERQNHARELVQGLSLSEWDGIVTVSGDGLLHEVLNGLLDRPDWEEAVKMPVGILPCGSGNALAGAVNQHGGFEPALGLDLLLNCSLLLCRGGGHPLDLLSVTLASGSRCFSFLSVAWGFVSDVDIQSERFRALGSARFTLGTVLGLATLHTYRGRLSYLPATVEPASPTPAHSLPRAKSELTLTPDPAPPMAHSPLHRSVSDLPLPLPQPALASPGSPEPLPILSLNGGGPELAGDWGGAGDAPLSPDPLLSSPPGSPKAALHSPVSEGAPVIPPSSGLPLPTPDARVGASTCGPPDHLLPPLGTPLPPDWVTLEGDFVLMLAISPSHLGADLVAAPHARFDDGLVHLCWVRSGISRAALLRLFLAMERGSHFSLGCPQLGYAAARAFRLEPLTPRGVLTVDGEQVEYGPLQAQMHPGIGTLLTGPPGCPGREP

[3] = biological target: Serine/threonine-protein kinase VRK2 (Homo sapiens) (UniProt Q86Y07); assay: Selectivity interaction (KinomeScan (DiscoverX)) EUB0000695a VRK2; details: at 100 nM
Serine/threonine-protein kinase VRK2 (Homo sapiens), sequence (Q86Y07 whole entry): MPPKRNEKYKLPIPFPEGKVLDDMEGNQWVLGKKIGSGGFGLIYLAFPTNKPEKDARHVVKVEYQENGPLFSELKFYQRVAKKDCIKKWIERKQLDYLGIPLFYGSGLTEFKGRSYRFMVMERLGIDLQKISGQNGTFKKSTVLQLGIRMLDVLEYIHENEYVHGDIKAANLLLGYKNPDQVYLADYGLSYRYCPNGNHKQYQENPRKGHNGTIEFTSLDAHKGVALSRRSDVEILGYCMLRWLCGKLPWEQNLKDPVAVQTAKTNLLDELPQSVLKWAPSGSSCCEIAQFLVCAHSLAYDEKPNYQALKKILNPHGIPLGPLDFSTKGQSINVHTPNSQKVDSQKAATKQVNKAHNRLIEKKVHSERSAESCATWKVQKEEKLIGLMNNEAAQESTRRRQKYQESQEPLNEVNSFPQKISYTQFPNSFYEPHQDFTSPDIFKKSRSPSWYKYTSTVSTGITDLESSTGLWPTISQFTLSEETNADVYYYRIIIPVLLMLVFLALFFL

[4] = biological target: Diacylglycerol kinase alpha (Homo sapiens) (UniProt P23743); assay: Selectivity interaction (ActivX KiNativ screen (ex vivo kinase selectivity in human PBMCs)) EUB0001619a DGKA; assay type: cell-based; details: PBMC, at 1 µM
Diacylglycerol kinase alpha (Homo sapiens), sequence (P23743 whole entry): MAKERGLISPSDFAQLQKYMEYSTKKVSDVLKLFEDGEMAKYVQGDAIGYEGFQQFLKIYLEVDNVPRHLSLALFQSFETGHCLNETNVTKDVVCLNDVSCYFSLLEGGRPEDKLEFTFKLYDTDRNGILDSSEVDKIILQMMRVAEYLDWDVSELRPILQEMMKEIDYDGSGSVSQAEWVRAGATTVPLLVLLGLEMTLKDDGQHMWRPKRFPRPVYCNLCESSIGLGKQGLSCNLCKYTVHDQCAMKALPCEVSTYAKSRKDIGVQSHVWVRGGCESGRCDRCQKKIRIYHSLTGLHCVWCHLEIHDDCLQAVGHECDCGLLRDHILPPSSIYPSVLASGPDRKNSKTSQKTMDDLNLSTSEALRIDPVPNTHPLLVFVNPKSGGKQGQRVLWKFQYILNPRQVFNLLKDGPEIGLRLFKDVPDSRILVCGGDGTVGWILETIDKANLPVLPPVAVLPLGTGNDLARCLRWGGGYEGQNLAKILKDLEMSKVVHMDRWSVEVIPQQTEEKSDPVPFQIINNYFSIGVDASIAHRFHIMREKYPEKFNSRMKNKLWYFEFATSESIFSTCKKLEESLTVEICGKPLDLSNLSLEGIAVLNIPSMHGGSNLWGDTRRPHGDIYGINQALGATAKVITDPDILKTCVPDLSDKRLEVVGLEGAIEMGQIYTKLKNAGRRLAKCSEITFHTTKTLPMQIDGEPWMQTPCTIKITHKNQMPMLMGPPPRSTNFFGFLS

[5] = biological target: Cyclin-dependent kinase-like 1 (Homo sapiens) (UniProt Q00532); assay: Selectivity interaction (KinomeScan (DiscoverX)) EUB0000607a CDKL1; details: at 10 µM
Cyclin-dependent kinase-like 1 (Homo sapiens), sequence (Q00532 whole entry, canonical isoform): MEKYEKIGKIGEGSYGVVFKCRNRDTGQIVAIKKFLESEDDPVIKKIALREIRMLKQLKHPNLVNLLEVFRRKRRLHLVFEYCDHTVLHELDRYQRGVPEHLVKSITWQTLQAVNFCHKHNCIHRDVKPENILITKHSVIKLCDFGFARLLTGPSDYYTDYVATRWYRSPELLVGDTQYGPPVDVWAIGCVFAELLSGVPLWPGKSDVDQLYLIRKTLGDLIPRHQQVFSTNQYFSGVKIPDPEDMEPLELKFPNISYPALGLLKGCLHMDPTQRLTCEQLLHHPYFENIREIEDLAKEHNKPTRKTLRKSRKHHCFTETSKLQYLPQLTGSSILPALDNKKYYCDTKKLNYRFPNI

[6] = biological target: T2, Phosphatidylinositol 4,5-bisphosphate 3-kinase catalytic subunit delta isoform (Homo sapiens) (UniProt O00329); assay: Selectivity interaction (KinomeScan (DiscoverX)) EUB0000666a PIK3CD; details: at 10 µM
T2 sequence (whole entry): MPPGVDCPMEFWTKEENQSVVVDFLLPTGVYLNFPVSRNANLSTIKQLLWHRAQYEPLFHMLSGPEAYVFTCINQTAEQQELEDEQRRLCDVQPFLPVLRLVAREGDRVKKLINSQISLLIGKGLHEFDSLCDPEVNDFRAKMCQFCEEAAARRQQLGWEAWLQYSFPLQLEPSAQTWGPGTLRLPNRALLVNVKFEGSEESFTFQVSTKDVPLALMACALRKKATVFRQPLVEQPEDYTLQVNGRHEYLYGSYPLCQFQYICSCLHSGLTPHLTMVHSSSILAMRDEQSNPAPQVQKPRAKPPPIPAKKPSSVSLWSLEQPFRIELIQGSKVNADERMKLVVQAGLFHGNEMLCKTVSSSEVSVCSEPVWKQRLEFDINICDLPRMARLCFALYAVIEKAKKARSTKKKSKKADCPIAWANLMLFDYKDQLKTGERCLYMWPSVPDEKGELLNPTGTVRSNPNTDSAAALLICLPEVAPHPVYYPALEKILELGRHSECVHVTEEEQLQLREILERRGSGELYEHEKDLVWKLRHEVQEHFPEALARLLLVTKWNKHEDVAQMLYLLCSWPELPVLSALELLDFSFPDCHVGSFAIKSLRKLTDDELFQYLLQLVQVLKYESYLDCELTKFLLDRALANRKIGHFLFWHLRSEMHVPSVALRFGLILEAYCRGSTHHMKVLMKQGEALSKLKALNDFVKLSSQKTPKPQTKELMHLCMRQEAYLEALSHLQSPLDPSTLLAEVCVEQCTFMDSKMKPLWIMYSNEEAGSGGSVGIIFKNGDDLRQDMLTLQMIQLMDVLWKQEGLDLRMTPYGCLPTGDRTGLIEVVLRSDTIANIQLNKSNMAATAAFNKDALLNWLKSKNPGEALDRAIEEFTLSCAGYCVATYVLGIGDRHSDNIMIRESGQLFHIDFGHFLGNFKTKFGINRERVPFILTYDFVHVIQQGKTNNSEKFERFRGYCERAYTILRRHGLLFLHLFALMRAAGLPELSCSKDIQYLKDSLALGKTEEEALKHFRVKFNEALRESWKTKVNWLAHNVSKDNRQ

[7] = biological target: Hepatocyte growth factor-like protein (Homo sapiens) (UniProt P26927); assay: Selectivity interaction (KinomeScan (DiscoverX)) EUB0000666a MST1; details: at 10 µM

Tyrosine-protein kinase receptor UFO (Homo sapiens), sequence (P30530 whole entry): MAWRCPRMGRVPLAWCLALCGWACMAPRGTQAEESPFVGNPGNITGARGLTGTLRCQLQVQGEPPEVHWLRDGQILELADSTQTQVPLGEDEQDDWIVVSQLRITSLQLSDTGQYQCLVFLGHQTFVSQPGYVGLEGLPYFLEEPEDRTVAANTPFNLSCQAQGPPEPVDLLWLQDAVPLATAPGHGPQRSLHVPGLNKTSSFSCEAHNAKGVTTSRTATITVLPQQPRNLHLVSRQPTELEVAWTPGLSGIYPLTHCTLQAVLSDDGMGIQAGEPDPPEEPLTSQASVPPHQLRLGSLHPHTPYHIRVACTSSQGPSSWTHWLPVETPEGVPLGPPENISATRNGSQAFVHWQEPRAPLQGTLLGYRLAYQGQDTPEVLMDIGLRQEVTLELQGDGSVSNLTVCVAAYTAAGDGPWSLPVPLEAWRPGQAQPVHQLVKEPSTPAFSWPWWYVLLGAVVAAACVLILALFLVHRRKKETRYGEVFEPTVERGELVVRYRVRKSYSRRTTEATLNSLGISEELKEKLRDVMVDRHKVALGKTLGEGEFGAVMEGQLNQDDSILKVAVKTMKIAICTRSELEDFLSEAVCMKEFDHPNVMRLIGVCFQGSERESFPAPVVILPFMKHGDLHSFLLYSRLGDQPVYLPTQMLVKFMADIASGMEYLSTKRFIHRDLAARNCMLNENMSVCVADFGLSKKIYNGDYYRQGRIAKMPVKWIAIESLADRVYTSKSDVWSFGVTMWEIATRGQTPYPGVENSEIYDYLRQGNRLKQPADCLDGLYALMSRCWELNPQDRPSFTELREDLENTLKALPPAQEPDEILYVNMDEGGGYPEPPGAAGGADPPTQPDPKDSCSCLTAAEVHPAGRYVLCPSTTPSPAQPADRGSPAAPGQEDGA

Structure (SMILES): CC[C@@H]1[C@H](F)C(=O)N[C@@H]1COc1nccc2cc(C(N)=O)c(OC)cc12 [ZIMLOVISERTIB]
- % of inhibition [1]: 12.2%

Structure (SMILES): Cn1cc(-n2cnc3c(NCc4nc5cc(Cl)c(Cl)cc5[nH]4)nc(N4CCOCC4)nc32)cn1
- % of inhibition [2]: 67.7%

Structure (SMILES): Cc1cc(F)c(C(=O)Nc2cccc(-c3nncn3C(C)C)n2)cc1-n1cnc(C2CC2)c1
- % of control [3]: 100%

Structure (SMILES): N#Cc1cccc(-c2c[nH]c3ncnc(N4CCOCC4)c23)c1
- % of inhibition [4]: -9%

Structure (SMILES): CNC(=O)Nc1ccc(-c2nc(N3CC4CCC(C3)O4)c3cnn(C4CCC5(CC4)OCCO5)c3n2)cc1
- % of control [5]: 84%

Structure (SMILES): O=C(NOC[C@H](O)CO)c1ccc(F)c(F)c1Nc1ccc(I)cc1F
- % of control [6]: 40%
- % of control [7]: 100%
